Laboratory results: ChEMBL document CHEMBL1201862, “PubChem BioAssay data set” (2004)
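Each compound was tested at five concentrations against cells in 96-well plates for 48 hours. GI50 = concentration required for 50% inhibition of growth.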 Calls of active or inactive are those of the source. Rule as the data show it: active = GI50 up to about 1.1 µM and inactive = higher.

Key:
Assay in all cases: DTP human tumour cell line panel, 48 h
SNB-19 = system: SNB-19
SF-295 = system: SF-295
PC-3 = system: PC-3
MOLT-4 = system: MOLT-4
HCT-15 = system: HCT-15
IGROV-1 = system: IGROV-1
CAKI-1 = system: CAKI-1
U-251 = system: U-251
COLO 205 = system: COLO 205
786-0 = system: 786-0
NCI/ADR-RES = system: NCI/ADR-RES
XF498 = system: XF498
M14 = system: M14
T47D = system: T47D
LOX IMVI = system: LOX IMVI
UACC-62 = system: UACC-62
SN12C = system: SN12C
EKVX = system: EKVX
DU-145 = system: DU-145
A549 = system: A549

Row | SMILES | GI50 (SNB-19) | GI50 (SF-295) | GI50 (PC-3) | GI50 (MOLT-4) | GI50 (HCT-15) | GI50 (IGROV-1) | GI50 (CAKI-1) | GI50 (U-251) | GI50 (COLO 205) | GI50 (786-0) | GI50 (NCI/ADR-RES) | GI50 (XF498) | GI50 (M14) | GI50 (T47D) | GI50 (LOX IMVI) | GI50 (UACC-62) | GI50 (SN12C) | GI50 (EKVX) | GI50 (DU-145) | GI50 (A549)
1 | O=C1C=CC(=O)c2c1cc1ccccc1c2O | 19.3 µM (inactive) | 17.1 µM (inactive) | 6.03 µM (inactive) | 0.387 µM (active) | 4.8 µM | 5.28 µM (inactive) | 4.21 µM (inactive) | 14 µM (inactive) | 2.4 µM (inactive) | 7.67 µM (inactive) | 6.18 µM (inactive) | 3.01 µM (inactive) | 10.7 µM (inactive) | 1.61 µM (inactive) | 2.72 µM (inactive) | 6.32 µM (inactive) | 12.3 µM (inactive) | 11.5 µM (inactive) | 14.6 µM (inactive) | 16.7 µM (inactive)
2 | CC(C)CC(NC(=O)OC(C)(C)C)C(=O)Nc1ccc(Nc2nc(F)nc(-c3c4ccccc4cn3C)n2)cc1 (stereo unspecified) | > 86.1 µM (inactive) | > 81.7 µM (inactive) | 35.1 µM (inactive) | 59.7 µM (inactive) | > 68.9 µM | > 100 µM (inactive) | > 100 µM (inactive) | 43.9 µM (inactive) | 18.6 µM (inactive) | > 100 µM (inactive) | > 100 µM (inactive) | > 85.1 µM (inactive) | > 100 µM (inactive) | 40.4 µM (inactive) | > 100 µM (inactive) | > 100 µM (inactive) | > 100 µM (inactive) | 52.7 µM (inactive) | 20.3 µM (inactive) | > 100 µM (inactive)
3 | C=COC(=O)N[C@H]1CCc2cc(OC)c(OC)c(OC)c2-c2ccc(SC)c(=O)cc21 | 0.0101 µM (active) | < 0.01 µM (active) | < 0.01 µM (active) | < 0.01 µM (active) | < 0.01 µM | < 0.01 µM (active) | < 0.01 µM (active) | < 0.01 µM (active) | < 0.01 µM (active) | < 0.01 µM (active) | < 0.01 µM (active) | < 0.01 µM (active) | < 0.01 µM (active) | 34 µM (inactive) | < 0.01 µM (active) | < 0.01 µM (active) | < 0.01 µM (active) | 8.43 µM (inactive) | < 0.01 µM (active) | < 0.01 µM (active)
4 | Cc1ccc(/N=N/c2ccc(N(CCC#N)CCC#N)cc2C)c(Br)c1 | 32.4 µM (inactive) | 18.7 µM (inactive) | – | 7.5 µM (inactive) | 2.78 µM | 37.4 µM (inactive) | 2.38 µM (inactive) | 19.1 µM (inactive) | 38.1 µM (inactive) | 17 µM (inactive) | – | 9.08 µM (inactive) | 20.5 µM (inactive) | – | 3.33 µM (inactive) | 13.5 µM (inactive) | 19.4 µM (inactive) | 41 µM (inactive) | – | 21.5 µM (inactive)
5 | CCCCCCCCCCCCn1[nH]c(C)c(C(=S)SCCCCCCCC)c1=O | > 82.8 µM (inactive) | > 63 µM (inactive) | – | 14 µM (inactive) | 21 µM | > 91.6 µM (inactive) | 32.1 µM (inactive) | 45 µM (inactive) | 37.2 µM (inactive) | 45.4 µM (inactive) | – | > 100 µM (inactive) | 56.1 µM (inactive) | – | 48.8 µM (inactive) | 21.1 µM (inactive) | 86.3 µM (inactive) | 43.9 µM (inactive) | – | 69.5 µM (inactive)
6 | COc1nc(C(Cl)(Cl)Cl)c(Cl)c(OC)c1Cl [PENCLOMEDINE] | 27.3 µM (inactive) | 40.2 µM (inactive) | 39.6 µM (inactive) | 19.4 µM (inactive) | 40.6 µM | 14.2 µM (inactive) | 40.3 µM (inactive) | 36.1 µM (inactive) | 44.1 µM (inactive) | 6.59 µM (inactive) | 24.3 µM (inactive) | 25.3 µM (inactive) | 40 µM (inactive) | 37.4 µM (inactive) | 29 µM (inactive) | 22.4 µM (inactive) | 39 µM (inactive) | 40.8 µM (inactive) | 38.7 µM (inactive) | 40.5 µM (inactive)
7 | O=C1c2ccccc2C(=O)c2nc3ccc(Cl)cc3cc21 | > 100 µM (inactive) | 52.5 µM (inactive) | – | > 100 µM (inactive) | > 100 µM | > 100 µM (inactive) | > 100 µM (inactive) | > 100 µM (inactive) | > 100 µM (inactive) | > 100 µM (inactive) | – | > 100 µM (inactive) | > 100 µM (inactive) | – | > 100 µM (inactive) | > 100 µM (inactive) | > 100 µM (inactive) | > 100 µM (inactive) | – | > 100 µM (inactive)
8 | COC(=O)C1=NC(=S)NC(c2ccccc2)C1c1nc2ccccc2o1 (stereo unspecified) | > 50 µM (inactive) | > 50 µM (inactive) | – | > 50 µM (inactive) | > 50 µM | > 50 µM (inactive) | > 50 µM (inactive) | > 50 µM (inactive) | > 50 µM (inactive) | > 50 µM (inactive) | – | > 50 µM (inactive) | > 50 µM (inactive) | – | > 50 µM (inactive) | > 50 µM (inactive) | > 50 µM (inactive) | > 50 µM (inactive) | – | > 50 µM (inactive)
9 | CC(=O)OCC1=CC2CCC3C(C)(CCC[C@]3(C)COC(C)=O)C23CC[C@H]1C3 (stereo partly specified) | 68.4 µM (inactive) | 37.3 µM (inactive) | – | 20.1 µM (inactive) | > 100 µM | 99.3 µM (inactive) | 39.6 µM (inactive) | 27.9 µM (inactive) | 24 µM (inactive) | 57.3 µM (inactive) | – | 33.8 µM (inactive) | 36 µM (inactive) | – | 25 µM (inactive) | 36.1 µM (inactive) | 45.2 µM (inactive) | 83 µM (inactive) | – | 64 µM (inactive)
10 | O=C1CCC(=O)c2c1c(O)c1ccncc1c2O | 26 µM (inactive) | 18 µM (inactive) | – | 18.2 µM (inactive) | 12.9 µM | 15 µM (inactive) | 23.9 µM (inactive) | 23.9 µM (inactive) | 7.94 µM (inactive) | 15.7 µM (inactive) | – | 18.4 µM (inactive) | 15.6 µM (inactive) | – | 13.8 µM (inactive) | 6.4 µM (inactive) | 17.5 µM (inactive) | 27.8 µM (inactive) | – | 20.4 µM (inactive)
